# Laboratory results: PMC6368403, “Identification of a bilirubin receptor that may mediate a component of cholestatic itch” (eLife, 2019)
# Values joined by “and” are separate entries in the source; they are usually repeats but may differ in a detail not shown here. Equal entries are not always repeated.
# Legend:
# MRGPRA1 [1] = target: T1, MRGPRA1 (Mus musculus, UniProt Q91WW5); test: Ca2+ imaging and concentration-Ca2+ response (EC50) in HEK293 cells expressing MRGPRA1; format: cell-based; details: for Ca2+ response (concentration-response curve): MRGPRA1, triplicate wells (Fig 2D)
# T1 construct: expressed in transfected cells
# T1 sequence (Q91WW5 1-304): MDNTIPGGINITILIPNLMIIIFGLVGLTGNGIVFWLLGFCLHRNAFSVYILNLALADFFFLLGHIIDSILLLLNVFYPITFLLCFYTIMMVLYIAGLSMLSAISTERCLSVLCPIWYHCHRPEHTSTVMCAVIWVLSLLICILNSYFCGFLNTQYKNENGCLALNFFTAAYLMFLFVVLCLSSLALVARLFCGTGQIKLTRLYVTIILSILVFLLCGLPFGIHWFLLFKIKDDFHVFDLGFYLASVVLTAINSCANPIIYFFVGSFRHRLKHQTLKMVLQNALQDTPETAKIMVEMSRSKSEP
# Outline: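 HEK293 cells stably expressing the mouse or human receptor, loaded with Fura 2-AM 30 min at 37 °C, imaged in HEPES-buffered CIB pH 7.4 (340/380 nm excitation, 510 nm emission). Haem metabolites diluted from DMSO into 20 mM Tris, 150 mM NaCl pH 8.8. EC50 from triplicate dose-responses, repeated 2–4 times.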
# MRGPRA1 [2] = target: T1, MRGPRA1; test: Microscale thermophoresis binding to MRGPRA1; design: Transformed binding isotherm (mean of three experiments): unit not given here; details: for Transformed binding isotherm (mean of three experiments): MRGPRA1 (Fig 2E)
# Protocol: (§1) Binding isotherms for MRGPRA1, MRGPRX4, and MRGRPC11 towards various ligands were determined by microscale thermophoresis with the NanoTemper monolith NT.115 instrument ([Duhr and Braun, 2006]). Ligands were pre-incubated with 10 µM of the GFP-tagged receptor of interest for 5 min at room temperature in binding buffer (20 mM Tris and 150 mM NaCl at pH 8.8). Receptors were crudely purified as a membrane fraction from cells stably expressing the receptor ([Vasavda et al., 2017]). Haem metabolites were freshly dissolved in 0.1 M NaOH in dim light and then diluted into assay buffer. Lyophilized BAM8-22 was dissolved in binding buffer. The pH of each ligand was evaluated prior to incubation with a receptor. Samples were loaded into NT.115 Hydrophobic-Treated Capillaries from NanoTemper. Microscale thermophoretic experiments were executed using 20% LED power and 15% MST power. KDs were calculated using the law of mass action with data from three independent experiments. Binding between bilirubin and receptors was evaluated purely thermophoretically, whereas binding between BAM8-22 and MRGPRC11 was evaluated by T-Jump. Samples with dramatic deviations in initial fluorescence were excluded.
# MRGPRX4 = target: T2, MRGPRX4 (Homo sapiens, UniProt Q96LA9); test: Microscale thermophoresis binding to MRGPRX4; design: microscale thermophoresis response (binding isotherm), mean: unit not given here; details: for microscale thermophoresis response (binding isotherm), mean: mean of n=3, Fig 2-J
# T2 construct: expressed in transfected cells
# Protocol: as §1
# T2 sequence (Q96LA9 whole entry): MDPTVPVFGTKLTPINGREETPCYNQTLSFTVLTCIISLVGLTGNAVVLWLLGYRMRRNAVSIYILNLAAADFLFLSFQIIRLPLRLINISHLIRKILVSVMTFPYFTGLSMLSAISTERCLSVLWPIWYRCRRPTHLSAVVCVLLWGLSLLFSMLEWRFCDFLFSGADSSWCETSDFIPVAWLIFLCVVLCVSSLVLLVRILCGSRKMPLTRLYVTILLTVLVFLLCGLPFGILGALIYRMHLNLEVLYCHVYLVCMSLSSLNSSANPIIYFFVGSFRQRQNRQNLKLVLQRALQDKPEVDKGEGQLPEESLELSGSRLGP
structure (smiles),measurement,setting,value
"C=CC1=C(C)/C(=C/c2[nH]c(Cc3[nH]c(/C=C4\NC(=O)C(C)=C4C=C)c(C)c3CCC(=O)NCCS(=O)(=O)O)c(CCC(=O)NCCS(=O)(=O)O)c2C)NC1=O [conjugated bilirubin, bilirubin ditaurate]",Calcium response / activation of MRGPRA1-expressing cells,"MRGPRA1 [1]; 50 µM bilirubin, 30 µM FMRF",activated MRGPRA1-expressing cells
same,Ca2+ response (concentration-response curve),MRGPRA1 [1]; [Ligand] 7.8125e-6 M,1.221 and 1.276 and 1.273
same,Ca2+ response (concentration-response curve),MRGPRA1 [1]; [Ligand] 1.5625e-5 M,1.253 and 1.283 and 1.252
same,Ca2+ response (concentration-response curve),MRGPRA1 [1]; [Ligand] 3.125e-5 M,1.222 and 1.225 and 1.221
same,Ca2+ response (concentration-response curve),MRGPRA1 [1]; [Ligand] 6.25e-5 M,1.19 and 1.186 and 1.177
same,Ca2+ response (concentration-response curve),MRGPRA1 [1]; [Ligand] 0.000125 M,1.212 and 1.254 and 1.214
same,Ca2+ response (concentration-response curve),MRGPRA1 [1]; [Ligand] 0.00025 M,1.3325 and 1.3437 and 1.301
same,Ca2+ response (concentration-response curve),MRGPRA1 [1]; [Ligand] 0.0005 M,1.4484 and 1.4326 and 1.424
same,Ca2+ response (concentration-response curve),MRGPRA1 [1]; [Ligand] 0.001 M,1.572 and 1.554 and 1.499
same,Transformed binding isotherm (mean of three experiments),MRGPRA1 [2]; [Ligand] 1.221e-7 M,8.864
same,Transformed binding isotherm (mean of three experiments),MRGPRA1 [2]; [Ligand] 2.441e-7 M,12.0246
same,Transformed binding isotherm (mean of three experiments),MRGPRA1 [2]; [Ligand] 4.883e-7 M,-13.1442
same,Transformed binding isotherm (mean of three experiments),MRGPRA1 [2]; [Ligand] 9.766e-7 M,10.2399
same,Transformed binding isotherm (mean of three experiments),MRGPRA1 [2]; [Ligand] 1.9531e-6 M,-8.006
same,Transformed binding isotherm (mean of three experiments),MRGPRA1 [2]; [Ligand] 3.9063e-6 M,-10.5584
same,Transformed binding isotherm (mean of three experiments),MRGPRA1 [2]; [Ligand] 7.8125e-6 M,-9.562
same,Transformed binding isotherm (mean of three experiments),MRGPRA1 [2]; [Ligand] 1.5625e-5 M,-5.789
same,Transformed binding isotherm (mean of three experiments),MRGPRA1 [2]; [Ligand] 3.125e-5 M,-4.24
same,Transformed binding isotherm (mean of three experiments),MRGPRA1 [2]; [Ligand] 6.25e-5 M,37.7812
same,Transformed binding isotherm (mean of three experiments),MRGPRA1 [2]; [Ligand] 0.000125 M,5.5559
same,Transformed binding isotherm (mean of three experiments),MRGPRA1 [2]; [Ligand] 0.00025 M,6.134
same,Transformed binding isotherm (mean of three experiments),MRGPRA1 [2]; [Ligand] 0.0005 M,25.273
same,Transformed binding isotherm (mean of three experiments),MRGPRA1 [2]; [Ligand] 0.001 M,43.2348
same,Binding to MRGPRA1,MRGPRA1 [2]; microscale thermophoresis,lower affinity than unconjugated bilirubin
same,"microscale thermophoresis response (binding isotherm), mean",MRGPRX4; [Ligand] 3.05e-8 M,14.6332
same,"microscale thermophoresis response (binding isotherm), mean",MRGPRX4; [Ligand] 6.1e-8 M,-0.3949
same,"microscale thermophoresis response (binding isotherm), mean",MRGPRX4; [Ligand] 1.221e-7 M,-3.186
same,"microscale thermophoresis response (binding isotherm), mean",MRGPRX4; [Ligand] 2.441e-7 M,10.7277
same,"microscale thermophoresis response (binding isotherm), mean",MRGPRX4; [Ligand] 4.883e-7 M,1.18
same,"microscale thermophoresis response (binding isotherm), mean",MRGPRX4; [Ligand] 9.766e-7 M,3.799
same,"microscale thermophoresis response (binding isotherm), mean",MRGPRX4; [Ligand] 1.9531e-6 M,8.125
same,"microscale thermophoresis response (binding isotherm), mean",MRGPRX4; [Ligand] 3.9063e-6 M,1.993
same,"microscale thermophoresis response (binding isotherm), mean",MRGPRX4; [Ligand] 7.8125e-6 M,2.933
same,"microscale thermophoresis response (binding isotherm), mean",MRGPRX4; [Ligand] 1.5625e-5 M,-0.662
same,"microscale thermophoresis response (binding isotherm), mean",MRGPRX4; [Ligand] 3.125e-5 M,8.64
same,"microscale thermophoresis response (binding isotherm), mean",MRGPRX4; [Ligand] 6.25e-5 M,18.6992
same,"microscale thermophoresis response (binding isotherm), mean",MRGPRX4; [Ligand] 0.000125 M,39.4499
same,"microscale thermophoresis response (binding isotherm), mean",MRGPRX4; [Ligand] 0.00025 M,46.5687
same,"microscale thermophoresis response (binding isotherm), mean",MRGPRX4; [Ligand] 0.0005 M,49.0399
same,"microscale thermophoresis response (binding isotherm), mean",MRGPRX4; [Ligand] 0.001 M,52.0554
same,Binding to MRGPRX4,MRGPRX4; microscale thermophoresis,lower affinity than unconjugated bilirubin
